# Results reported in US20220160721A1, “METHODS OF TREATING CANCER” (Epizyme, Inc., priority 2016, published 2022).
# What was measured:
# COV434 = experiment: Time course annexin and cell cycle, COV434; assay type: cell-based; details: COV434, after 3 days through day 14
# Method: 1×10^5 harvested cells were plated in triplicate in 96-well format and stained with Millipore's Guava Nexin reagent for 1 hr at RT. Percentages of cells undergoing apoptosis were measured using Millipore's Guava EasyCyte Flow Cytometer. For cell cycle analysis, 5×10^5 cells were plated in a 96 well plate, washed once with PBS, and fixed overnight in ice-cold 70% ethanol at 4° C. Fixed cells were washed with PBS, then stained with Millipore's Guava Cell Cycle Reagent and data obtained from EasyCyte Flow Cytometer.
# Bin-67 xenografts = experiment: In vivo efficacy study, Bin-67 xenograft; set-up: species or system BALB/c nude mice; details: day 18
# Method: (§1) In vivo efficacy studies: For the in vivo efficacy studies, there were 10 mice per dose group and each mouse was inoculated subcutaneously at the right flank. All cells were suspended in a 0.2 mL mixture of base media and Matrigel at 1:1 for tumor development. Bin-67 cells were inoculated at 5×10^6 cells/mouse and treatment began when the mean tumor sizes reached 146.08 mm^3 (28 days post-inoculation). COV434 cells were inoculated at 1×10^7 cells/mouse and treatment began when mean tumor sizes reached 158.88 mm^3 (20 days post-inoculation). TOV112D cells were inoculated at 5×10^6 cells/mouse and treatment began when the mean tumor size reached 128.13 mm^3 (day 14 post inoculation). Mice were assigned into groups using a randomized block design. […] Body weights were measured twice a week for the duration of the study. Tumor size was measured twice weekly in two dimensions using a caliper, and the volume was expressed in cubic millimeters. Animals were euthanized 3 hours post-final dose, with blood and tissues collected for analysis.
# JHOS-2 = experiment: Time course annexin and cell cycle, JHOS-2; assay type: cell-based; details: JHOS-2 (wild type for both SMARCA2 and SMARCA4)
# Method: (§2) Percentages of cells undergoing apoptosis were measured using Millipore's Guava EasyCyte Flow Cytometer. For cell cycle analysis, 5×10^5 cells were plated in a 96 well plate, washed once with PBS, and fixed overnight in ice-cold 70% ethanol at 4° C. Fixed cells were washed with PBS, then stained with Millipore's Guava Cell Cycle Reagent and data obtained from EasyCyte Flow Cytometer.
# COV434 xenografts = experiment: In vivo efficacy study, COV434 xenograft; set-up: species or system BALB/c nude mice
# Bin-67 = experiment: Time course annexin and cell cycle, Bin-67; assay type: cell-based; details: Bin-67, apoptotic events as early as day 4
# Method: as §2
# [1] = mouse, in vivo, po
# Method: as §1
# H3K27me3 = H3K27me3 ELISA in xenograft tumors; details: tumors harvested at study endpoints, ratio of H3K27me3 to total H3 by ELISA
# [2] = Plasma exposure in xenograft efficacy studies; assay type: in vivo, BALB/c nude mice; details: plasma collected 5 minutes prior or 3 hours post final dose, all models
# Method: as §1
# TOV112D xenografts = experiment: In vivo efficacy study, TOV112D xenograft; set-up: species or system BALB/c nude mice; details: day 14
# Method: as §1
# Oral bioavailability = details: in vivo
# SMARCA2 = SMARCA2 expression upon treatment in SCCOHT cell lines; assay type: cell-based; details: over time
compound,measurement,setting,value
CCN(c1cc(-c2ccc(CN3CCOCC3)cc2)cc(C(=O)NCc2c(C)cc(C)[nH]c2=O)c1C)C1CCOCC1 [tazemetostat],cell cycle and apoptosis,COV434,increase in the percentage of cells in sub-G1 phase and a concomitant reduction in G2 phase
same,tumor growth inhibition (TGI),Bin-67 xenografts; 125 mg/kg orally BID,56%
same,tumor growth inhibition (TGI),Bin-67 xenografts; 250 mg/kg orally BID,87%
same,average tumor volume,Bin-67 xenografts; 500 mg/kg orally BID,41 mm^3
same,tumor response,Bin-67 xenografts; 500 mg/kg orally BID,regressions in all 10 animals
same,cell cycle and apoptosis,JHOS-2,did not show any cell cycle changes or apoptotic events
same,tumor growth inhibition (TGI),"COV434 xenografts; 125 mg/kg orally BID, day 28",74%
same,tumor regrowth,"COV434 xenografts; 500 mg/kg cohort, 28 days after dose cessation",not observed
same,animals having unmeasurable tumors,"COV434 xenografts; 500 mg/kg orally BID, day 28",7 of the 8
same,tumor response,"COV434 xenografts; 500 mg/kg orally BID, day 28",complete regressions
same,cell cycle and apoptosis,Bin-67,more modest increase in the percentage of sub-G1 cells
same,"tolerability, bodyweight loss and clinical observations",[1],well tolerated with minimal bodyweight loss and no other clinical observations
same,H3K27me3 levels in tumors,H3K27me3,robust inhibition
same,systemic exposure in plasma,[2],Dose-dependent systemic exposure
same,tumor growth inhibition (TGI),TOV112D xenografts; 125 mg/kg orally BID,28%
same,tumor growth inhibition (TGI),TOV112D xenografts; 500 mg/kg orally BID,35%
same,oral bioavailability,Oral bioavailability,orally bioavailable
same,SMARCA2 expression,SMARCA2,time-dependent increases in SMARCA2 expression
